# Experimental data published in patent US9981976B2, “Piperidine substituted pyrazolo[1,5-A]pyrimidine derivatives with inhibitory activity on the replication of the respiratory syncytial virus (RSV)” (priority 2014, dated 2018).
# What was measured:
# rgRSV224 virus = assay: microbe, parasite or virus in culture; assay type: cell-based, respiratory syncytial virus (RSV); conditions: human respiratory syncytial virus, HeLa, 72 h, read-out: RSV HELA pEC50, rgRSV224 virus (MOI=1), HeLa cells, GFP expression three days post-virus exposure (converted)
# HeLa cells = assay: Cytotoxicity in HeLa cells, ATP content (ATPlite kit); conditions: three days incubation, CC50 = 50% concentration for cytotoxicity
# Procedure: Black 384-well clear-bottom microtiter plates (Corning, Amsterdam, The Netherlands) were filled via acoustic drop ejection using the echo liquid handler (Labcyte, Sunnyvale, Calif.). 200 nL of compound stock solutions (100% DMSO) were transferred to the assay plates. 9 serial 4-fold dilutions of compound were made, creating per quadrant the same compound concentration. The assay was initiated by adding 10 μL of culture medium to each well (RPMI medium without phenol red, 10% FBS-heat inactivated, 0.04% gentamycin (50 mg/mL). All addition steps are done by using a multidrop dispenser (Thermo Scientific, Erembodegem, Belgium). Next, rgRSV224 virus (MOI=1) diluted in culture medium was added to the plates. rgRSV224 virus is an engineered virus that includes an additional GFP gene (Hallak L K, Spillmann D, Collins P L, Peeples M E. Glycosaminoglycan sulfation requirements for respiratory syncytial virus infection; Journal of virology (2000), 74(22), 10508-13) and was in-licensed from the NIH (Bethesda, Md., USA). Finally, 20 μL of a HeLa cell suspension (3,000 cells/well) were plated. Medium, virus- and mock-infected controls were included in each test. The wells contain 0.05% DMSO per volume. Cells were incubated at 37° C. in a 5% CO2 atmosphere. Three days post-virus exposure, viral replication was quantified by measuring GFP expression in the cells by an in house developed MSM laser microscope (Tibotec, Beerse, Belgium). The EC50 was defined as the 50% inhibitory concentration for GFP expression. In parallel, compounds were incubated for three days in a set of white 384-well microtiter plates (Corning) and the cytotoxicity of compounds in HeLa cells was determined by measuring the ATP content of the cells using the ATPlite kit (Perkin Elmer, Zaventem, Belgium) according to the manufacturer's instructions. The CC50 was defined as the 50% concentration for cytotoxicity.
Compound,EC50 (rgRSV224 virus),melting point,SI TOX HELA (HeLa cells)
"Cc1ccc2ncnc(N3CCCCC3c3cc4nc(N5CCC5)c(C)cn4n3)c2c1 (centres unmarked) [P11, 4-(2-(5-(azetidin-1-yl)-6-methylpyrazolo[1,5-a]pyrimidin-2-yl)-piperidin-1-yl)-6-methylquinazoline]",126 nM,205.49 °C,<4.6
"Cc1ccc2ncnc(N3CCCCC3c3cc4nc(N5CC(O)C5)c(C)cn4n3)c2c1 (centres unmarked) [P12, 1-(6-methyl-2-(1-(6-methylquinazolin-4-yl)piperidin-2-yl)pyrazolo-[1,5-a]pyrimidin-5-yl)azetidin-3-ol]",200 nM,233.08 °C,<4
"Cc1nc2c(N3CCCCC3c3cc4nc(N5CCC5)cc(N5CCOCC5)n4n3)ncnc2s1 (centres unmarked) [P20, 4-(5-(azetidin-1-yl)-2-(1-(2-methylthiazolo[5,4-d]pyrimidin-7-yl)-piperidin-2-yl)pyrazolo[1,5-a]pyrimidin-7-yl)morpholine]",631 nM,229.8 °C,5.4
"Cc1ccc2ncnc(N3CCCCC3c3cc4nc(N5CCC5)cc(C)n4n3)c2c1 (centres unmarked) [P21, 4-(2-(5-(azetidin-1-yl)-7-methylpyrazolo[1,5-a]pyrimidin-2-yl)-piperidin-1-yl)-6-methylquinazoline]",398 nM,192.43 °C,<4.6
"Cc1nc(N2CCCCC2c2cc3nc(N4CC(N)C4)c(C)cn3n2)c2c(C)cccc2n1 (centres unmarked) [P27, 1-(2-(1-(2,5-dimethylquinazolin-4-yl)piperidin-2-yl)-6-methyl-pyrazolo[1,5-a]pyrimidin-5-yl)azetidin-3-amine]",631 nM,176.85 °C,4.5
"COC(=O)N(C(=O)OC)c1nc(N2CCCCC2c2cc3nc(N4CCC4)cc(N4CCOCC4)n3n2)c2c(C)cccc2n1 (centres unmarked) [P28, dimethyl (4-{2-[5-(azetidin-1-yl)-7-(morpholin-4-yl)pyrazolo[1,5-a]-pyrimidin-2-yl]piperidin-1-yl}-5-methylquinazolin-2-yl)imidodicarbonate]",794 nM,136.62 °C,<4
"Cc1cccc2ncnc(N3CCCCC3c3cc4nc(N5CCC5)cc(N5CCNCC5)n4n3)c12 (centres unmarked) [P53, 4-(2-(5-(azetidin-1-yl)-7-(piperazin-1-yl)pyrazolo[1,5-a]pyrimidin-2-yl)piperidin-1-yl)-5-methylquinazoline]",50.1 nM,,4.6
"Cc1cccc2ncnc(N3CCCCC3c3cc4nc(N5CCC5)cc(N5CCN(C(=O)NC(C)C)CC5)n4n3)c12 (centres unmarked) [P54, 4-(5-(azetidin-1-yl)-2-(1-(5-methylquinazolin-4-yl)piperidin-2-yl)-pyrazolo[1,5-a]pyrimidin-7-yl)-N-isopropylpiperazine-1-carboxamide]",25.1 nM,,4.5
"Cc1cccc2ncnc(N3CCCCC3c3cc4nc(N5CCC5)cc(N5CCN(S(C)(=O)=O)CC5)n4n3)c12 (centres unmarked) [P55, 4-(2-(5-(azetidin-1-yl)-7-(4-(methylsulfonyl)piperazin-1-yl)pyrazolo-[1,5-a]pyrimidin-2-yl)piperidin-1-yl)-5-methylquinazoline]",15.8 nM,,4.3
"CSc1nc(N2CCCCC2c2cc3nc(N4CCC4)cc(N4CCOCC4)n3n2)c2cc(C)ccc2n1 (centres unmarked) [P57, 4-(5-(azetidin-1-yl)-2-(1-(6-methyl-2-(methylthio)quinazolin-4-yl)-piperidin-2-yl)pyrazolo[1,5-a]pyrimidin-7-yl)morpholine]",631 nM,,4.5
"CCc1cccc2ncnc(N3CCCCC3c3cc4nc(N5CCC5)cc(N5CCOCC5)n4n3)c12 (centres unmarked) [P58, 4-(5-(azetidin-1-yl)-2-(1-(5-ethylquinazolin-4-yl)piperidin-2-yl)-pyrazolo[1,5-a]pyrimidin-7-yl)morpholine]",501 nM,,<4
"Cc1cc(C)c2c(N3CCCCC3c3cc4nc(N5CCC5)cc(N5CCOCC5)n4n3)ncnc2c1 (centres unmarked) [P59, 4-(5-(azetidin-1-yl)-2-(1-(5,7-dimethylquinazolin-4-yl)piperidin-2-yl)-pyrazolo[1,5-a]pyrimidin-7-yl)morpholine]",398 nM,,4.3
"Fc1cccc2ncnc(N3CCCCC3c3cc4nc(N5CCC5)cc(N5CCOCC5)n4n3)c12 (centres unmarked) [P60, 4-(5-(azetidin-1-yl)-2-(1-(5-fluoroquinazolin-4-yl)piperidin-2-yl)-pyrazolo[1,5-a]pyrimidin-7-yl)morpholine]",126 nM,,4.3
"CCOc1cccc2ncnc(N3CCCCC3c3cc4nc(N5CCC5)cc(N5CCOCC5)n4n3)c12 (centres unmarked) [P61, 4-(5-(azetidin-1-yl)-2-(1-(5-ethoxyquinazolin-4-yl)piperidin-2-yl)-pyrazolo[1,5-a]pyrimidin-7-yl)morpholine]",31.6 nM,,<4
"FC(F)(F)c1cccc2ncnc(N3CCCCC3c3cc4nc(N5CCC5)cc(N5CCOCC5)n4n3)c12 (centres unmarked) [P62, 4-(5-(azetidin-1-yl)-2-(1-(5-(trifluoromethyl)quinazolin-4-yl)piperidin-2-yl)pyrazolo[1,5-a]pyrimidin-7-yl)morpholine]",100 nM,,4.3
"CCc1ccc2ncnc(N3CCCCC3c3cc4nc(N5CCC5)cc(N5CCOCC5)n4n3)c2c1C (centres unmarked) [P63, 4-(5-(azetidin-1-yl)-2-(1-(6-ethyl-5-methylquinazolin-4-yl)piperidin-2-yl)pyrazolo[1,5-a]pyrimidin-7-yl)morpholine]",398 nM,,4.4
"Cc1ccc2ncnc(N3CCCCC3c3cc4nc(N5CCC5)cc(N5CCOCC5)n4n3)c2c1C (centres unmarked) [P64, 4-(5-(azetidin-1-yl)-2-(1-(5,6-dimethylquinazolin-4-yl)piperidin-2-yl)-pyrazolo[1,5-a]pyrimidin-7-yl)morpholine]",15.8 nM,,<4.6
"Cc1nc2c(N3CCCCC3c3cc4nc(N5CCC5)cc(N5CCOCC5)n4n3)ncnc2o1 (centres unmarked) [P65, 7-(2-(5-(azetidin-1-yl)-7-morpholinopyrazolo[1,5-a]pyrimidin-2-yl)-piperidin-1-yl)-2-methyloxazolo[5,4-d]pyrimidine]",15.8 nM,,<4.6
"COC(=O)c1nc(N2CCCCC2c2cc3nc(N4CCC4)cc(N4CCOCC4)n3n2)c2c(C)cccc2n1 (centres unmarked) [P67, methyl 4-(2-(5-(azetidin-1-yl)-7-morpholinopyrazolo[1,5-a]pyrimidin-2-yl)piperidin-1-yl)-5-methylquinazoline-2-carboxylate]",126 nM,,<4.3
"Cc1cccc2nc(C(=O)O)nc(N3CCCCC3c3cc4nc(N5CCC5)cc(N5CCOCC5)n4n3)c12 (centres unmarked) [P68, 4-(2-(5-(azetidin-1-yl)-7-morpholinopyrazolo[1,5-a]pyrimidin-2-yl)-piperidin-1-yl)-5-methylquinazoline-2-carboxylic acid]",316 nM,,<4.6
"Cc1cccc2nc(C(=O)NS(C)(=O)=O)nc(N3CCCCC3c3cc4nc(N5CCC5)cc(N5CCOCC5)n4n3)c12 (centres unmarked) [P69, 4-(2-(5-(azetidin-1-yl)-7-morpholinopyrazolo[1,5-a]pyrimidin-2-yl)-piperidin-1-yl)-5-methyl-N-(methylsulfonyl)quinazoline-2-carboxamide]",316 nM,,<4
"CNC(=O)c1nc(N2CCCCC2c2cc3nc(N4CCC4)cc(N4CCOCC4)n3n2)c2c(C)cccc2n1 (centres unmarked) [P70, 4-(2-(5-(azetidin-1-yl)-7-morpholinopyrazolo[1,5-a]pyrimidin-2-yl)-piperidin-1-yl)-N,5-dimethylquinazoline-2-carboxamide]",631 nM,,4.3
"Cc1cccc2nc(C(=O)NS(=O)(=O)C3CC3)nc(N3CCCCC3c3cc4nc(N5CCC5)cc(N5CCOCC5)n4n3)c12 (centres unmarked) [P71, 4-(2-(5-(azetidin-1-yl)-7-morpholinopyrazolo[1,5-a]pyrimidin-2-yl)-piperidin-1-yl)-N-(cyclopropylsulfonyl)-5-methylquinazoline-2-carboxamide]",398 nM,,<4
"Cc1cccc2nc(-c3cnoc3)nc(N3CCCCC3c3cc4nc(N5CCC5)cc(N5CCOCC5)n4n3)c12 (centres unmarked) [P72, 4-(5-(azetidin-1-yl)-2-(1-(2-(isoxazol-4-yl)-5-methylquinazolin-4-yl)-piperidin-2-yl)pyrazolo[1,5-a]pyrimidin-7-yl)morpholine]",25.1 nM,,4.5
"Cc1nnn(C)c1-c1nc(N2CCCCC2c2cc3nc(N4CCC4)cc(N4CCOCC4)n3n2)c2c(C)cccc2n1 (centres unmarked) [P73, 4-(5-(azetidin-1-yl)-2-(1-(2-(1,4-dimethyl-1H-1,2,3-triazol-5-yl)-5-methylquinazolin-4-yl)piperidin-2-yl)pyrazolo[1,5-a]pyrimidin-7-yl)morpholine]",126 nM,238.91 °C,4.8
"COc1cccc2ncnc(N3CCCCC3c3cc4nc(N5CCC5)cc(N5CCOCC5)n4n3)c12 (centres unmarked) [P74, 4-(5-(azetidin-1-yl)-2-(1-(5-methoxyquinazolin-4-yl)piperidin-2-yl)-pyrazolo[1,5-a]pyrimidin-7-yl)morpholine]",15.8 nM,,<4.6
